Our source for the LC retention time values is the RepoRT retention time repository (doi:10.1016/j.jchromb.2020.122105).

The structures appear in SMILES notation.

Holding throughout (details): stereoisomer not certain
Data set [1] is described as follows: RP, Waters CORTECS T3, 100 × 2.1 mm, 2.7 µm, 0.15 mL/min, estimated dead time 1.5 min; A: water + 0.1% formic acid, pH 3; B: methanol + 0.1% formic acid, pH 3; gradient (min/%B) 0/0 1/0 6/5 30/100 35/100 35.1/0 40/0.
Data set [2] is described as follows: RP, Thermo Scientific Hypercarb, 150 × 2.1 mm, 5 µm, 0.1 mL/min, estimated dead time 3.3 min; A: water + 0.1% formic acid, pH 3; B: methanol + 0.1% formic acid, pH 3; gradient (min/%B) 0/5 5/5 20/100 35/100 35.1/5 45/5.
Data set [3] is described as follows: RP, Waters ACQUITY UPLC BEH C18, 100 × 2.1 mm, 1.7 µm, 0.1 mL/min, estimated dead time 2.2 min; A: water + 0.1% formic acid, pH 3; B: methanol + 0.1% formic acid, pH 3; gradient (min/%B) 0/5 5/5 25/95 25.1/100 35/100 35.1/5 45/5.
Data set [4] in a line: RP, Waters CORTECS T3, 100 × 2.1 mm, 2.7 µm, 0.2 mL/min, estimated dead time 1.1 min; A: water + 0.1% formic acid, pH 3; B: methanol + 0.1% formic acid, pH 3; gradient (min/%B) 0/0 1/0 6/5 30/100 35/100 35.1/0 40/0.
The nature of data set [5]: RP, Waters CORTECS T3, 100 × 2.1 mm, 2.7 µm, 0.2 mL/min, estimated dead time 1.1 min; A: water + 0.045% formic acid + 0.11% ammonium hydroxide, pH 7; B: methanol; gradient (min/%B) 0/5 5/5 25/95 25.1/100 35/100 35.1/5 45/5.
A short description of data set [6]: RP, Waters ACQUITY UPLC BEH C18, 100 × 2.1 mm, 1.7 µm, 0.1 mL/min, estimated dead time 2.2 min; A: water + 0.1% formic acid, pH 3; B: methanol + 0.1% formic acid, pH 3; gradient (min/%B) 0/5 5/5 25/100 30/100 30.1/5 35/5.
Data set [7] is described as follows: RP, Waters CORTECS T3, 100 × 2.1 mm, 2.7 µm, 0.3 mL/min, estimated dead time 0.73 min; A: water + 0.1% formic acid, pH 3; B: methanol + 0.1% formic acid, pH 3; gradient (min/%B) 0/5 5/5 25/95 25.1/100 35/100 35.1/5 45/5.
Data set [8] is described as follows: RP, Waters CORTECS T3, 100 × 2.1 mm, 2.7 µm, 0.1 mL/min, estimated dead time 2.2 min; A: water + 0.1% formic acid, pH 3; B: methanol + 0.1% formic acid, pH 3; gradient (min/%B) 0/5 5/5 25/95 25.1/100 35/100 35.1/5 45/5.
Data set [9] is described as follows: RP, Waters CORTECS T3, 100 × 2.1 mm, 2.7 µm, 0.3 mL/min, estimated dead time 0.73 min; A: water + 0.1% formic acid, pH 3; B: methanol + 0.1% formic acid, pH 3; gradient (min/%B) 0/0 5/0 25/100 30/100 30.1/0 35/0.
Data set [10] can be described thus: RP, Waters ACQUITY UPLC BEH C18, 100 × 2.1 mm, 1.7 µm, 0.1 mL/min, estimated dead time 2.2 min; A: water + 0.045% formic acid + 0.11% ammonium hydroxide, pH 7; B: methanol; gradient (min/%B) 0/5 5/5 25/95 25.1/100 35/100 35.1/5 45/5.
A short description of data set [11]: RP, Waters ACQUITY UPLC BEH C18, 100 × 2.1 mm, 1.7 µm, 0.1 mL/min, estimated dead time 2.2 min; A: water + 0.1% formic acid, pH 3; B: methanol + 0.1% formic acid, pH 3; gradient (min/%B) 0/5 5/5 25/95 25.1/100 35/100 35.1/5 45/5. This is another data set of the same source.
The nature of data set [12]: RP, Waters CORTECS T3, 100 × 2.1 mm, 2.7 µm, 0.25 mL/min, estimated dead time 0.88 min; A: water + 0.1% formic acid, pH 3; B: methanol + 0.1% formic acid, pH 3; gradient (min/%B) 0/0 1/0 6/5 30/100 35/100 35.1/0 40/0.
Data set [13] is described as follows: RP, Waters CORTECS T3, 100 × 2.1 mm, 2.7 µm, 0.3 mL/min, estimated dead time 0.73 min; A: water + 0.1% formic acid, pH 3; B: methanol + 0.1% formic acid, pH 3; gradient (min/%B) 0/5 5/5 25/100 30/100 30.1/5 35/5.
Data set [14] in a line: RP, Waters CORTECS T3, 100 × 2.1 mm, 2.7 µm, 0.1 mL/min, estimated dead time 2.2 min; A: water + 0.1% formic acid, pH 3; B: methanol + 0.1% formic acid, pH 3; gradient (min/%B) 0/0 1/0 6/5 30/100 35/100 35.1/0 40/0.
A short description of data set [15]: RP, Waters ACQUITY UPLC BEH C18, 100 × 2.1 mm, 1.7 µm, 0.1 mL/min, estimated dead time 2.2 min; A: water + 0.1% formic acid, pH 3; B: methanol + 0.1% formic acid, pH 3; gradient (min/%B) 0/5 5/5 25/95 25.1/100 35/100 35.1/5 45/5. The source holds these as a separate data set.
A short description of data set [16]: RP, Waters ACQUITY UPLC BEH C18, 100 × 2.1 mm, 1.7 µm, 0.2 mL/min, estimated dead time 1.1 min; A: water + 0.025% formic acid + 20 mM ammonium acetate + 0.055% ammonium hydroxide, pH 7; B: methanol; gradient (min/%B) 0/5 5/5 25/100 30/100 30.1/5 35/5.
The nature of data set [17]: HILIC, Merck SeQuant ZIC-HILIC, 150 × 2.1 mm, 5 µm, 0.75 mL/min, estimated dead time 0.44 min; A: water + 0.1% acetic acid + 10 mM ammonium acetate, pH 4; B: 5% water + 95% acetonitrile + 0.1% acetic acid + 10 mM ammonium acetate, pH 4; gradient (min/%B) 0/95 5/95 20/57 25/57 30/95 40/95.
Data set [18] can be described thus: RP, Waters CORTECS T3, 100 × 2.1 mm, 2.7 µm, 0.2 mL/min, estimated dead time 1.1 min; A: water + 0.1% formic acid, pH 3; B: methanol + 0.1% formic acid, pH 3; gradient (min/%B) 0/0 1/0 6/5 30/100 35/100 35.1/0 40/0. This is another data set of the same source.
A short description of data set [19]: RP, Waters ACQUITY UPLC BEH C18, 100 × 2.1 mm, 1.7 µm, 0.2 mL/min, estimated dead time 1.1 min; A: water + 0.1% formic acid, pH 3; B: methanol + 0.1% formic acid, pH 3; gradient (min/%B) 0/5 5/5 25/100 30/100 30.1/5 35/5.
Data set [20] can be described thus: RP, Waters CORTECS T3, 100 × 2.1 mm, 2.7 µm, 0.3 mL/min, estimated dead time 0.73 min; A: water + 0.1% formic acid, pH 3; B: methanol + 0.1% formic acid, pH 3; gradient (min/%B) 0/0 5/0 25/100 30/100 30.1/0 35/0. The source holds these as a separate data set.
A short description of data set [21]: RP, Waters CORTECS T3, 100 × 2.1 mm, 2.7 µm, 0.3 mL/min, estimated dead time 0.73 min; A: water + 0.1% formic acid, pH 3; B: methanol + 0.1% formic acid, pH 3; gradient (min/%B) 0/0 1/0 6/5 30/100 35/100 35.1/0 40/0.
Data set [22] can be described thus: RP, Waters ACQUITY UPLC BEH C18, 100 × 2.1 mm, 1.7 µm, 0.2 mL/min, estimated dead time 1.1 min; A: water + 0.025% formic acid + 20 mM ammonium acetate + 0.055% ammonium hydroxide, pH 7; B: methanol; gradient (min/%B) 0/5 5/5 25/100 30/100 30.1/5 35/5. This is another data set of the same source.
Data set [23] in a line: HILIC, Waters XBridge BEH Amide, 100 × 2.1 mm, 2.5 µm, 0.5 mL/min, estimated dead time 0.44 min; A: water + 0.1% acetic acid + 10 mM ammonium acetate, pH 4; B: 5% water + 95% acetonitrile + 0.1% acetic acid + 10 mM ammonium acetate, pH 4; gradient (min/%B) 0/95 5/95 20/57 25/57 30/95 40/95.
Data set [24] can be described thus: RP, Waters CORTECS T3, 100 × 2.1 mm, 2.7 µm, 0.25 mL/min, estimated dead time 0.88 min; A: water + 0.1% formic acid, pH 3; B: methanol + 0.1% formic acid, pH 3; gradient (min/%B) 0/5 5/5 25/95 25.1/100 35/100 35.1/5 45/5.

Take `CC1C(=O)Nc2ccccc21` (stereo not drawn) [3-METHYL-2-OXINDOLE]: the LC retention time in data set [1] is 18.4 min; in data set [2] it was 32.3 min; in data set [3], 19.2 min; in [4], 17 min; in [5], 15.2 min; in [6], 18.9 min. Further, the LC retention time in data set [7] is 13.6 min; in data set [8], 18.8 min; in [9], 14.2 min; in data set [10], 19.2 min; in [11], 19.2 min; in data set [12] it was 16.1 min. Further, the LC retention time in [13] was 13.3 min; in data set [14], 15.2 min.

Regarding `Nc1ccn(C2OC(CO)C3OP(=O)([O-])OC32)c(=O)n1` (stereo not drawn) [CYTIDINE 2',3'-CYCLIC MONOPHOSPHATE], the LC retention time in data set [1] was 1.78 min; in [15] it was 2.67 min; in data set [16], 1.36 min; in data set [3] it was 2.66 min; in [4], 1.34 min; in data set [6], 2.74 min. Also, the LC retention time was 12.1 min in [17]; 1.35 min in data set [18]; 0.89 min in [9]; 2.72 min in data set [11]; 1.09 min in data set [12]; 1.34 min in data set [19]. In data set [20], the LC retention time was 0.89 min.

Regarding `Cc1cc2nc[nH]c2cc1C` [DIMETHYLBENZIMIDAZOLE], the LC retention time is 12 min in [21]; 14.7 min in data set [1]; 15.7 min in [3]; 13.4 min in data set [4]; 16.5 min in data set [5]; 15.2 min in data set [6]. For the same compound, the LC retention time in data set [7] is 10.5 min; in data set [22], 16.6 min; in [8] it was 15.1 min; in [9], 11.4 min; in data set [10] it was 20.5 min; in [11], 15.6 min. The LC retention time in data set [12] is 12.6 min; in data set [13], 10.4 min; in [23] it was 0.65 min; in [14] it was 11.8 min.

Take `CCCCCCCCCCCC(=O)OC(CC(=O)[O-])C[N+](C)(C)C` (stereo not drawn) [LAUROYLCARNITINE]: the LC retention time in [21] was 23.4 min; in [1], 25.7 min; in data set [2], 28.5 min; in [3] it was 25.8 min; in data set [4], 24.7 min; in data set [5] it was 22.8 min. Further, the LC retention time in data set [6] is 24.5 min; in data set [7], 20.6 min; in data set [22], 22.8 min; in data set [8], 24.5 min; in [9], 20.3 min; in data set [10], 26.6 min. In addition, the LC retention time was 25.7 min in data set [11], 23.9 min in data set [12], 20 min in data set [13] and 21.8 min in data set [14].

Regarding `Cc1cc2nc3[nH]c(=O)[nH]c(=O)c3nc2cc1C` [LUMICHROME], the LC retention time is 19.6 min in data set [1]; 19.6 min in data set [15]; 13.1 min in data set [16]; 19.6 min in [3]; 18.3 min in data set [4]; 16.4 min in data set [5]. The LC retention time was 19.1 min in [6]; 15.5 min in data set [24]; 15 min in data set [7]; 16 min in [22]; 19.6 min in data set [8]; 18.3 min in data set [18]. For the same compound, the LC retention time in [9] is 15.3 min; in [10], 19.5 min; in [11], 19.6 min; in [12], 17.5 min; in [13], 14.6 min; in data set [19], 16 min. Further, in data set [14], the LC retention time is 16.3 min.
